The record followed here is US20120177701A1, “COMPOSITIONS COMPRISING IMMUNOSTIMULATORY NUCLEIC ACIDS AND RELATED METHODS” (priority 2010, published 2012).

The subject of experiment [1] is J774 murine macrophages. Description: TNF-α induction in mouse macrophage cell line J774. It counts as cell-based. On the procedure: Induction of TNF-α by macrophages is a hallmark of human TLR8 activation (Forsbach et al., 2008, J. Immunol., 180:3729-38; Ghosh et al., 2007, Int. Immunopharmacol., 7:1111-21; Gorden et al., 2005, J. Immunol., 174:1259-68). […] In the following experiment mouse macrophage cell line, J774, has been transfected by test ribonucleotides as described above for HEK-Blue™ hTLR8 cells (with the exception that 2-10×10^4 cells/well were used) and TNF-α was measured in culture supernatants at 16-20 hours after transfection.

For experiment [2], the target named is T1, human TLR8 (Homo sapiens, UniProt Q9NR97).
T1 construct: host or cells: HEK293 (HEK-Blue hTLR8) with NF-kB-inducible SEAP reporter
T1 sequence (Q9NR97 27-1041): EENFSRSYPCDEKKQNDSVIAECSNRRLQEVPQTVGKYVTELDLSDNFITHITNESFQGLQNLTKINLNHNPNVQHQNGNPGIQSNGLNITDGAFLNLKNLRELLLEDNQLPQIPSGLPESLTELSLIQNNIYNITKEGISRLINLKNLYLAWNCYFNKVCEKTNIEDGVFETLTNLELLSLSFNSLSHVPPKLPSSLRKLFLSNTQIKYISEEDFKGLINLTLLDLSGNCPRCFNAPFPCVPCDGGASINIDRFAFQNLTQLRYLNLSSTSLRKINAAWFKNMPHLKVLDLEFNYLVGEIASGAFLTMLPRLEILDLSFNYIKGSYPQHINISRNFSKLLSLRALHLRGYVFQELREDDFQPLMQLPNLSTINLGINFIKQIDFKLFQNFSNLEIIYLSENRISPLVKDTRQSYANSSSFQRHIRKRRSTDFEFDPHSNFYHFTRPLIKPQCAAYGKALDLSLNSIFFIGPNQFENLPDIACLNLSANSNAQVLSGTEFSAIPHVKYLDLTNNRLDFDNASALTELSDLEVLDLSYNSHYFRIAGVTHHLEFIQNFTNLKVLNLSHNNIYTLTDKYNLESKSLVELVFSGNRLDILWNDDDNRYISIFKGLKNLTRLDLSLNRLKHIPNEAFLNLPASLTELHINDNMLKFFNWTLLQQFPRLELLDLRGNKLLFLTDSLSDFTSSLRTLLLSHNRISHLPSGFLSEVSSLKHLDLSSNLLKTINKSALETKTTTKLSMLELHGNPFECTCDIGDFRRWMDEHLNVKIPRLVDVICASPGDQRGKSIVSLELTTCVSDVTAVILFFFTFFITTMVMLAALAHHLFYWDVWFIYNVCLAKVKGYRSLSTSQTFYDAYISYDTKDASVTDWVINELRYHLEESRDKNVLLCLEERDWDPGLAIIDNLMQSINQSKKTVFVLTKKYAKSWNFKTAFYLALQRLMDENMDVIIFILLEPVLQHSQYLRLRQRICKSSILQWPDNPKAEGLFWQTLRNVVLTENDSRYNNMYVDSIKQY
Description: HEK-Blue hTLR8 NF-kB-inducible SEAP reporter assay (TLR8 activation). The format is cell-based. (A reporter such as luciferase makes a cellular process visible.)

In experiment [3] the test system is HEK-Blue™ Null. It counts as cell-based, human.
Experiment [4] deals with primary human lymphocytes. The format is cell-based.
The target of experiment [5] is T2, human TLR9 (Homo sapiens, UniProt Q9NR96).
T2 construct: expressed in transfected cells; host or cells: HEK-Blue hTLR9 (HEK293-derived reporter line)
T2 sequence (Q9NR96 26-1032): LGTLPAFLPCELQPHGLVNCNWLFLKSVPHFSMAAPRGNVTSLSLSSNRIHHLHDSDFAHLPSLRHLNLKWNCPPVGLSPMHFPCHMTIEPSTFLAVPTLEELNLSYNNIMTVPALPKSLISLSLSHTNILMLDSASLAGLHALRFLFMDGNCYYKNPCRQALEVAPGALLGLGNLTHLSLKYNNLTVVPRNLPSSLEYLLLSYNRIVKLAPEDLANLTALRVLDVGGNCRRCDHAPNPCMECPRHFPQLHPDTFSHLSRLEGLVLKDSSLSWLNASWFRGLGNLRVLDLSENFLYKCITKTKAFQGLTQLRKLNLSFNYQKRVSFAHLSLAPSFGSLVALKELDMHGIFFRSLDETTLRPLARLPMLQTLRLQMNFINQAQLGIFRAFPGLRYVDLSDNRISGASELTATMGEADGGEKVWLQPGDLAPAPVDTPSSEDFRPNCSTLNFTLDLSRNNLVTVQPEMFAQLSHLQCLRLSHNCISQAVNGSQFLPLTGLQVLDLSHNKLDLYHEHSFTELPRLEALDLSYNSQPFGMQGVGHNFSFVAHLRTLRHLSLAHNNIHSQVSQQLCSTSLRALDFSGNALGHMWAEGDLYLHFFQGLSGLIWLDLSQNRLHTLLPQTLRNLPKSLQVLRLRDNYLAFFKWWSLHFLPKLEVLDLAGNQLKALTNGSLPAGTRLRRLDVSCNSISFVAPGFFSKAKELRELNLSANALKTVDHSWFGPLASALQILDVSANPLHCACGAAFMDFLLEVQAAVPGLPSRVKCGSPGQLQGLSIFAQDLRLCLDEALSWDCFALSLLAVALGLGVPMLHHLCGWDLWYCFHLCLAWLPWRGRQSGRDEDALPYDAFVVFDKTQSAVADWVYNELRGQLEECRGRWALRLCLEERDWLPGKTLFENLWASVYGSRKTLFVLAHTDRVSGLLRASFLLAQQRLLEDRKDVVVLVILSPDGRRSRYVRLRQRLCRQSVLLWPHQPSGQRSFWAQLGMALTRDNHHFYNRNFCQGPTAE
It counts as cell-based.

Experiment [6] concerns the target T3, human TLR3 (Homo sapiens, UniProt O15455).
T3 construct: expressed in transfected cells; host or cells: HEK-Blue hTLR3 (HEK293-derived reporter line)
T3 sequence (O15455 24-904): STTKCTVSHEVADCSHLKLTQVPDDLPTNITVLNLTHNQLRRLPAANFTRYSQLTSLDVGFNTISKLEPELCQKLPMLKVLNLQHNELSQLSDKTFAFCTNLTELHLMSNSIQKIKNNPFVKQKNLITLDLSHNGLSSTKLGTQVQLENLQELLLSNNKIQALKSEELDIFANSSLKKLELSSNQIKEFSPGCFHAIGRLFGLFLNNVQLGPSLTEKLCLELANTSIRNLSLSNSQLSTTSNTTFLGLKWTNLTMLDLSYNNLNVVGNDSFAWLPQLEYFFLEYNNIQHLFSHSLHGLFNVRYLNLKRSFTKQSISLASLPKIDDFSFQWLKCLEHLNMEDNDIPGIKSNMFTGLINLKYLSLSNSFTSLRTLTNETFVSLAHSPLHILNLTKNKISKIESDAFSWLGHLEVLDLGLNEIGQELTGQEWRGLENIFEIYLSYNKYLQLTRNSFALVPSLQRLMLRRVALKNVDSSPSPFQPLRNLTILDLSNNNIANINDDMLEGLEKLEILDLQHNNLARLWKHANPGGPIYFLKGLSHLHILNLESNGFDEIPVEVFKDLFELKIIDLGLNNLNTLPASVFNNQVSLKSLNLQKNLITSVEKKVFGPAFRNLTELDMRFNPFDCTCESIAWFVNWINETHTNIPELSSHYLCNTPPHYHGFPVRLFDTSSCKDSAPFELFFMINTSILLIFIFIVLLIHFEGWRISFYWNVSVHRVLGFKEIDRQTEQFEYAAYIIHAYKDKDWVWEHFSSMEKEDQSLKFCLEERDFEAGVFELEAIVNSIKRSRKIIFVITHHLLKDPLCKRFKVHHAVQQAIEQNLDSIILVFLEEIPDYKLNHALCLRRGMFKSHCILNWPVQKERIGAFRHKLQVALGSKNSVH
It counts as cell-based.

As to “5′-AAGAAGAAAUAGAUUUAUUUUUAAAUUUUUGUGU-3′ [SL-0005]”, in experiment [1], the “TNF-α induction, described in words” value is “strongly induced TNF-α expression, to the level seen when R-0006 was used”. For the same substance, in experiment [2], the “TLR8 activation (fold increase of SEAP induction over the background), described in words” value is on record as “stronger levels of TLR8 activation” and the “concentration at which TLR8 activation was detected starting” value was 40 nM. For the same substance, in experiment [3], the “activation of SEAP expression” value was “No activation of SEAP expression”. In addition, in experiment [4], the “11-12(p40) induction” value was “significant levels”, the IFNγ induction entry is “significant levels”, the “IL-4 induction (Th2-type cytokine)” value is “insignificant” and the “IL-5 induction (Th2-type cytokine)” value is listed as “insignificant”. Also, in experiment [4], the IL-6 induction result is “significant levels”, the IL-10 induction result is reported as “significant levels”, the IL-23 induction entry is “significant levels” and the TNFα induction entry is on record as “significant levels”. Besides, in experiment [5], the “activation of SEAP expression” value is “No activation of SEAP expression”. Further, the “activation of SEAP expression” value in experiment [6] was “No activation of SEAP expression”.
